{"source": "paper PMC12083017", "about": "“Enhanced oral bioavailability of two Cistanche polysaccharides in acteoside: an in-depth analysis of intestinal flora, short-chain fatty acids, and pharmacokinetic regulation” (Frontiers in Nutrition, 2025)", "key": {"[1]": {"assay_type": "physicochemical", "settings": "rat; for Short-term stability (RSD,%): 4 h; for Post-preparation stability (RSD,%): 24 h; for Long-term stability (RSD,%): 15 days", "experimental": "A 4°C freezer was then used to make and store the stock solution (1 mg/mL). Moreover, 50% methanol was used to dilute 1 μg/mL of the IS working solution. […] Before being analyzed, the entire set of QC samples were kept at −80°C. An examination of stability using QC samples at low, medium, and high doses. Short-term stability was measured by injecting samples after staying 4 h at room temperature (25°C). After preparation, the sample was kept at 4°C for 24 h, and the dosage was injected to ascertain the sample’s stability. To determine long-term stability, samples were frozen at −80°C for 15 days before being injected. By thawing the samples three times in a row at room temperature and a freezer at −20°C, the freeze–thaw stability was ascertained."}, "[2]": {"experiment": "Pharmacokinetics of acteoside and its metabolites in rat plasma after oral acteoside (UPLC-QqQ-MS)", "assay_type": "in vivo, male Sprague–Dawley rats", "settings": "for AUC(0-inf) / AUC(0-t) / Tmax / half-life / Cmax / MRT last / MRT inf: male, Sprague-Dawley, rat, plasma, po, 100 mg/kg, metabolite in rat plasma following oral acteoside 100 mg/kg, n = 6; for Cmax: read-out: Cmax; for MRT last: read-out: MRT(0-t); for MRT inf: read-out: MRT(0-∞)", "from_the_text": "After a week of acclimatization, rats were split into three groups at random: the wine-processed Cistanche polysaccharide group (WCP group), the unprocessed Cistanche polysaccharide group (UCP group), and the blank control group (Control group). Six rats each group were raised in the same cage for breeding. Prior to the experiment, provide water and regular laboratory meals to the rats at will and fast for one night before the experiment. In order to ensure the continuous intake of Cistanche polysaccharides, it was calculated according to the requirements of the Chinese Pharmacopoeia ([16]) based on the daily dosage of Cistanche for adults, the polysaccharide yield of Cistanche polysaccharides and the equivalent conversion formula of the drug administration between humans and rats ([17]). An appropriate amount of raw Cistanche polysaccharide and Cistanche wine polysaccharide were weighed, dissolved in pure water, and prepared with 15.06 g·kg^-1 administration solution for continuous administration for 21 days. After fasting overnight, on day 22, two fresh fecal samples were collected from each rat, put straight into a sterile tube from the anus, avoiding contact with skin or urine, and stored in a -80°C freezer immediately after freezing with liquid nitrogen for subsequent analysis. For the pharmacokinetics, in a 1.5 mL heparinized centrifuge tube, 0.3 mL of continuous blood collected from the orbital vein was taken from 0 min, 5 min, 10 min, 30 min, 1.0 […], and 36 h following oral administration of acteoside (100 mg/kg) in the three groups. Using a cryo-centrifuge, plasma samples were produced by centrifuging at 800 g for ten minutes at 4°C. After that, plasma samples were gathered and kept for later examination at -80°C. […] Following this,20 μL of genistein (1 μg/mL IS) solution and 600 μL of cold acetonitrile were then included and centrifuged for 5 min, the […] proteins were separated by vortexing for 5 min, and then they were spun down for 15 min at 4°C at 14,000 rpm. The supernatant was gathered and dried at 40°C with a light nitrogen stream. The dried remnant was then immersed in 100 μL of 25% aqueous acetonitrile fluid, and centrifugation was performed again for 10 min at 4°C at 14,000 rpm. Ultimately, the LC-MS/MS system was injected with 2 μL of the liquid for analysis. A 1.7 μm and 2.1 × 100 mm I.D. […] With a column temperature of 30°C, the flow rate was fixed at 0.3 mL/min. In the mass spectrometry analysis, negative ionization mode was performed with the following optimized parameters: capillary voltage, 3.0 kV; desolvation temperature, 400°C. […] Thus, multiple reaction monitoring (MRM) of the acteoside transitions at 623.37 → 161.02 m/z, caffeic acid transitions at 179.01 → 135.03 m/z, hydroxytyrosol transitions at 153.03 → 122.95 m/z, genistein transitions at 269.08 → 132.57 m/z was used for quantification. […] Data were processed using Masslynx workstation data acquisition and qualitative analysis software (4.1, Waters, USA). Using the DAS program (Chinese Pharmacological Society, Beijing, China), pharmacokinetic parameters were estimated."}}, "note": "Read-outs that look alike come from different tables or passages of the source."}
{"smiles": "OCCc1ccc(O)c(O)c1", "note": "[Hydroxytyrosol, hydroxytyrosol]", "values": [{"measurement": "Freeze–thaw stability (RSD,%)", "setting": "[1]; 25 ng/mL", "result": 7.04, "unit": "%"}, {"measurement": "Freeze–thaw stability (RSD,%)", "setting": "[1]; 200 ng/mL", "result": 5.78, "unit": "%"}, {"measurement": "Freeze–thaw stability (RSD,%)", "setting": "[1]; 1000 ng/mL", "result": 4.24, "unit": "%"}, {"measurement": "Short-term stability (RSD,%)", "setting": "[1]; 25 ng/mL", "result": 5.34, "unit": "%"}, {"measurement": "Short-term stability (RSD,%)", "setting": "[1]; 200 ng/mL", "result": 3.26, "unit": "%"}, {"measurement": "Short-term stability (RSD,%)", "setting": "[1]; 1000 ng/mL", "result": 2.44, "unit": "%"}, {"measurement": "Post-preparation stability (RSD,%)", "setting": "[1]; 25 ng/mL", "result": 6.32, "unit": "%"}, {"measurement": "Post-preparation stability (RSD,%)", "setting": "[1]; 200 ng/mL", "result": 4.89, "unit": "%"}, {"measurement": "Post-preparation stability (RSD,%)", "setting": "[1]; 1000 ng/mL", "result": 3.21, "unit": "%"}, {"measurement": "Long-term stability (RSD,%)", "setting": "[1]; 25 ng/mL", "result": 7.78, "unit": "%"}, {"measurement": "Long-term stability (RSD,%)", "setting": "[1]; 200 ng/mL", "result": 5.86, "unit": "%"}, {"measurement": "Long-term stability (RSD,%)", "setting": "[1]; 1000 ng/mL", "result": 4.63, "unit": "%"}, {"measurement": "AUC(0-inf)", "setting": "[2]; Control group", "result": "42.5 ± 4.24", "unit": "ng·h/mL"}, {"measurement": "AUC(0-t)", "setting": "[2]; Control group", "result": "40.6 ± 3.24", "unit": "ng·h/mL"}, {"measurement": "Tmax", "setting": "[2]; Control group", "result": 15, "unit": "min"}, {"measurement": "half-life", "setting": "[2]; Control group", "result": "48.8 ± 7.74", "unit": "min"}, {"measurement": "Cmax", "setting": "[2]; Control group", "result": "30.3 ± 10.9", "unit": "ng/mL"}, {"measurement": "MRT last", "setting": "[2]; Control group", "result": "1.2 ± 0.132", "unit": "h"}, {"measurement": "MRT inf", "setting": "[2]; Control group", "result": "1.38 ± 0.145", "unit": "h"}, {"measurement": "AUC(0-inf)", "setting": "[2]; UCP group", "result": "60.5 ± 5.72", "unit": "ng·h/mL"}, {"measurement": "AUC(0-t)", "setting": "[2]; UCP group", "result": "56.5 ± 5.41", "unit": "ng·h/mL"}, {"measurement": "Tmax", "setting": "[2]; UCP group", "result": 15, "unit": "min"}, {"measurement": "half-life", "setting": "[2]; UCP group", "result": "54.5 ± 6.36", "unit": "min"}, {"measurement": "Cmax", "setting": "[2]; UCP group", "result": "44.4 ± 14", "unit": "ng/mL"}, {"measurement": "MRT last", "setting": "[2]; UCP group", "result": "1.19 ± 0.124", "unit": "h"}, {"measurement": "MRT inf", "setting": "[2]; UCP group", "result": "1.46 ± 0.153", "unit": "h"}, {"measurement": "AUC(0-inf)", "setting": "[2]; WCP group", "result": "91.3 ± 6.92", "unit": "ng·h/mL"}, {"measurement": "AUC(0-t)", "setting": "[2]; WCP group", "result": "90.6 ± 6.73", "unit": "ng·h/mL"}, {"measurement": "Tmax", "setting": "[2]; WCP group", "result": 15, "unit": "min"}, {"measurement": "half-life", "setting": "[2]; WCP group", "result": "32.2 ± 6.96", "unit": "min"}, {"measurement": "Cmax", "setting": "[2]; WCP group", "result": "71.4 ± 32", "unit": "ng/mL"}, {"measurement": "MRT last", "setting": "[2]; WCP group", "result": "1.27 ± 0.139", "unit": "h"}, {"measurement": "MRT inf", "setting": "[2]; WCP group", "result": "1.54 ± 0.168", "unit": "h"}, {"measurement": "Cmax of metabolite, WCP group relative to UCP group", "setting": "[2]; rats, following oral acteoside 100 mg/kg", "result": 1.61, "unit": "times"}]}
